Values after ≈ are worked out from the molar mass of the structure shown.
Test: Water-solubility test
Assay type: physicochemical
Conditions: 22° C.; for solubility at 24 h: water, pH 5.5, water, thermodynamic from solid, ultrasonic mixing for 24 hours, pH5.5, average of two experiments

Row | solubility at 24 h [µg/mL] | Water solubility relative to compound (IV) (pH5.5, ratio versus compound (IV)) [times] | Structure (SMILES)
1 | 0.0925 (≈ 0.226 µM) |  | Cc1cccc(NC(=O)Nc2ccc(-c3cncc4[nH]nc(N)c34)c3ccccc23)c1 [Compound (IV)]
2 | 0.64 (≈ 1.16 µM) | 6.9 | Cc1ccc(F)c(NC(=O)Nc2ccc(-c3ccc(OCCCN4CCCC4)c4[nH]nc(N)c34)c3ccccc23)c1 [Compound (V)]
